Assay results: US10780057B2, “Casein-based silica dual drug-loading composite microcapsule and preparation method therefor” (SHAANXI UNIVERSITY OF SCIENCE & TECHNOLOGY, priority 2016, dated 2020)

How the values were obtained:
[1] = Drug loading efficiency of casein-based silica dual drug-loaded composite microcapsule; type: physicochemical; details: casein-based SiO2 dual-loaded microcapsules; drug A ibuprofen on outer wall of capsule, drug B aspirin in core of capsule
Excerpt: (§1) The samples used in Table 1 were the casein-based SiO2 dual-loaded microcapsules obtained by loading the drug A-buprofen on the outer wall of the capsule and the drug B aspirin in the core of the capsule.

[2] = Cumulative drug release from casein-based silica dual drug-loaded composite microcapsule; type: physicochemical; details: after 40 h; casein-based SiO2 dual-loaded microcapsules; drug A ibuprofen on outer wall of capsule, drug B aspirin in core of capsule
Excerpt: as §1

Drug loading efficiency (%) [1] [%]	40 h cumulative release rate (%) [2] [%]	SMILES
69	88	CC(C)Cc1ccc(C(C)C(=O)O)cc1 (stereo not shown) [Drug A: ibuprofen, ibuprofen]
86	60	CC(=O)Oc1ccccc1C(=O)O [Drug B: aspirin, aspirin]
